Measurements as given in ChEMBL document CHEMBL1140588, “Design and synthesis of potent amido- and benzyl-substituted cis-3-amino-4-(2-cyanopyrrolidide)pyrrolidinyl DPP-IV inhibitors” (Bioorg Med Chem Lett, 2007).

Assays:
hERG (KCNH2) = hERG (KCNH2) (Homo sapiens, UniProt Q12809); assay: Displacement of [3H]dofetilide from hERG at 10 uM; details: probe [3H]dofetilide, read-out: Activity
Dipeptidyl peptidase 8 = Dipeptidyl peptidase 8 (Homo sapiens, UniProt Q6V1X1); assay: Inhibition of human DPP8
[1] = Bioavailability in Sprague-Dawley rat at 5 mg/kg, po; format: ADME, organism-based; details: in vivo
Rattus norvegicus [2] = assay: Inhibition of DPP4 in Sprague-Dawley rat at 5 mg/kg, po between 4 to 6 hrs; format: functional; set-up: scale not given: the % may be the effect or the level left
[3] = target: Voltage-gated inwardly rectifying potassium channel KCNH2 (Homo sapiens, UniProt Q12809); assay: Inhibition of hERG by patch clamp assay; format: toxicity
[4] = Cmax in Sprague-Dawley rat at 5 mg/kg, po; format: ADME, organism-based; set-up: dose 5 mg/kg, route oral; details: in vivo
Rattus norvegicus [5] = species on record: Rattus norvegicus; assay: Inhibition of DPP4 in Sprague-Dawley rat; format: functional
[6] = Half life in Sprague-Dawley rat at 5 mg/kg, po; format: ADME, organism-based; set-up: dose 5 mg/kg, route oral; details: in vivo
Rattus norvegicus [7] = assay: AUC(0 to infinity) in Sprague-Dawley rat at 5 mg/kg, po; format: ADME, organism-based, Plasma; set-up: time infinity, dose 5 mg/kg, route oral; details: in vivo
[8] = Plasma protein binding in Sprague-Dawley rat at 5 mg/kg, po; format: ADME, organism-based; set-up: dose 5 mg/kg, route oral; details: read-out: PB (converted)

Chain of Dipeptidyl peptidase 8 (Q6V1X1 whole entry): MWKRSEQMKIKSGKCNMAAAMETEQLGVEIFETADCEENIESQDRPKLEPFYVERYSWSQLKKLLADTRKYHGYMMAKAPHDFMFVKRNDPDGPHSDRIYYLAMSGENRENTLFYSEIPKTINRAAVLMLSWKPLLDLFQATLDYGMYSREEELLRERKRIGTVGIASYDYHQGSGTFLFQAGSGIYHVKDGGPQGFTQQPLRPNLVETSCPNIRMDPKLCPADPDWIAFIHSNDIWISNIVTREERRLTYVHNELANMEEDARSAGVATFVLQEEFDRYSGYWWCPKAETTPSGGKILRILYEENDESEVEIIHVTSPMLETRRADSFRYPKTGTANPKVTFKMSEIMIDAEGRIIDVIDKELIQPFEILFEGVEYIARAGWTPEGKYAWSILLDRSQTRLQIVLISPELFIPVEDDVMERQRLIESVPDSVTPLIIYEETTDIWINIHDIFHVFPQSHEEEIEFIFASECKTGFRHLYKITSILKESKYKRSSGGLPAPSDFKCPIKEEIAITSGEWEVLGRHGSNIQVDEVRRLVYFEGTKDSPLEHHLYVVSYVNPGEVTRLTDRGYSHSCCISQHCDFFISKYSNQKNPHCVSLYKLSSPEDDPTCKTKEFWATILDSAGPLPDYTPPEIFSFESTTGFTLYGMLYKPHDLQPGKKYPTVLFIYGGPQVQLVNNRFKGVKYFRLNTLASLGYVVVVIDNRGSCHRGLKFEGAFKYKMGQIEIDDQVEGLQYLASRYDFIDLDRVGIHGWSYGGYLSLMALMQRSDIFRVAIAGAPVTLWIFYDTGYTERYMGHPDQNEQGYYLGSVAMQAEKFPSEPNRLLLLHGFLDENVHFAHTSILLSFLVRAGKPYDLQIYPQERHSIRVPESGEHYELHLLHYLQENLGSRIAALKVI
Chain of Voltage-gated inwardly rectifying potassium channel KCNH2 (Q12809 whole entry): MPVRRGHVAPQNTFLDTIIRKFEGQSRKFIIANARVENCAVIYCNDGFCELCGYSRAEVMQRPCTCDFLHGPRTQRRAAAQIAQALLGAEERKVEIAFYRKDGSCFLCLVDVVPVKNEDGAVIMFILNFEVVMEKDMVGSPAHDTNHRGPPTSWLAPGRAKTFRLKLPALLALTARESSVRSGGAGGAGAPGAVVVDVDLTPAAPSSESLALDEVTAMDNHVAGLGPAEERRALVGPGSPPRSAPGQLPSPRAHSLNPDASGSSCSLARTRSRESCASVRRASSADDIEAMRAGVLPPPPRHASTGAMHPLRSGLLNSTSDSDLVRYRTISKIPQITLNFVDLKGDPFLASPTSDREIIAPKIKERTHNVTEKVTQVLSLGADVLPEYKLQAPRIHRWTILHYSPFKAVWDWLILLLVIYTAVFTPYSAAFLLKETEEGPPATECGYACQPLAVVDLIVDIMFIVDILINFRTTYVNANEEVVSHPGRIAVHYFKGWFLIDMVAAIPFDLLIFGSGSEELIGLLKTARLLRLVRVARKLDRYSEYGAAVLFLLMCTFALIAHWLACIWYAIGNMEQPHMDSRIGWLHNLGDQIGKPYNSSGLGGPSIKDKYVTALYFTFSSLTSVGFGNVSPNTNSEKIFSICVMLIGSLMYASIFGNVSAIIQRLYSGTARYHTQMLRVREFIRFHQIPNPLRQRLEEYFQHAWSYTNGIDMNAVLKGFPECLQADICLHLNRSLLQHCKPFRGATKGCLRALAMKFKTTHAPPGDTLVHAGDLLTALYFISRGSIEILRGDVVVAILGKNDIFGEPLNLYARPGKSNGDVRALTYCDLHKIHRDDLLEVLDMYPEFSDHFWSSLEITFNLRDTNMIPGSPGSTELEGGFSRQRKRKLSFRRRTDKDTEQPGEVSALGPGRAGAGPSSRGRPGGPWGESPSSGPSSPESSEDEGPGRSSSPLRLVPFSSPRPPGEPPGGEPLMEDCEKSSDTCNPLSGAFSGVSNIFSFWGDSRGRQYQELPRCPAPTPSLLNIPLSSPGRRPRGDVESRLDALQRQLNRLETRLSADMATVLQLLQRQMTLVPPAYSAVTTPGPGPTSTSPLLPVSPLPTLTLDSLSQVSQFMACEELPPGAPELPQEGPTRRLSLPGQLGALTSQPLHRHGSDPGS
Chain of hERG (KCNH2) (Q12809 whole entry): as above

IC50 (Dipeptidyl peptidase 8) [nM]	Compound	inhibition at 10 µM (hERG (KCNH2)) [%]	also measured
560	N#Cc1ccc(CN2C[C@H](N)[C@H](C(=O)N3CCC[C@H]3C#N)C2)cc1	47	–
148	Cn1nccc1-c1ccc(CN2C[C@H](N)[C@H](C(=O)N3CCC[C@H]3C#N)C2)cc1	36	–
858	Cc1ncn(-c2ccc(CN3C[C@H](N)[C@H](C(=O)N4CCC[C@H]4C#N)C3)cc2)n1	4	bioavailability [1]: 36%; Activity (Rattus norvegicus [2]): 51%
3290	N#C[C@@H]1CCCN1C(=O)[C@@H]1CN(Cc2cnc3ccccc3c2)C[C@@H]1N	36	–
–	N[C@H]1CN(C(=O)c2cc3ccccc3s2)C[C@H]1C(=O)N1CCCC1	5	–
–	N[C@H]1CN(C(=O)c2ccc3ccccc3c2)C[C@H]1C(=O)N1CCCC1	4	–
326	N#C[C@@H]1CCCN1C(=O)[C@@H]1CN(Cc2ccc(-c3cc[nH]n3)cc2)C[C@@H]1N	65	–
363	Cn1cc(-c2ccc(CN3C[C@H](N)[C@H](C(=O)N4CCC[C@H]4C#N)C3)cc2)cn1	71	–
190	N#C[C@@H]1CCCN1C(=O)[C@@H]1CN(Cc2ccc(-c3csnn3)cc2)C[C@@H]1N	91	–
–	N#Cc1ccc2c(c1)CCC2N1C[C@H](N)[C@H](C(=O)N2CCC[C@H]2C#N)C1 (some centres undefined)	88	–
–	N[C@H]1CN(C(=O)c2ccc(-n3cnnn3)cc2)C[C@H]1C(=O)N1CCCC1	15	–
1040	CC(c1ccc(C#N)cc1)N1C[C@H](N)[C@H](C(=O)N2CCC[C@H]2C#N)C1 (some centres undefined)	18	IC50 [3]: 10000 nM
–	N[C@H]1CN(C(=O)c2ccc3ncccc3c2)C[C@H]1C(=O)N1CCCC1	19	–
–	N[C@H]1CN(C(=O)c2cc3ccccc3cn2)C[C@H]1C(=O)N1CCCC1	0.5	–
–	N[C@H]1CN(C(=O)c2cnc3ccccc3c2)C[C@H]1C(=O)N1CCCC1	9	–
–	N[C@H]1CN(Cc2ccc(-n3cnnn3)cc2)C[C@H]1C(=O)N1CCCC1	43	–
–	N#Cc1cc(CN2C[C@H](N)[C@H](C(=O)N3CCCC3)C2)ccc1F	9	–

IC50 (Dipeptidyl peptidase 8) [nM]	Compound	inhibition at 10 µM (hERG (KCNH2)) [%]	also measured
–	N[C@H]1CN(Cc2ccc(-c3csnn3)cc2)C[C@H]1C(=O)N1CCCC1	84	–
–	Cc1cc(-n2cncn2)ccc1CN1C[C@H](N)[C@H](C(=O)N2CCC[C@H]2C#N)C1	62	–
–	N[C@H]1CN(Cc2cnc3ccccc3c2)C[C@H]1C(=O)N1CCCC1	32	–
461	N#C[C@@H]1CCCN1C(=O)[C@@H]1CN(Cc2ccc(-n3cncn3)cc2)C[C@@H]1N	40	IC50 [3]: 1800 nM
–	CC(c1ccc([N+](=O)[O-])cc1)N1C[C@H](N)[C@H](C(=O)N2CCCC2)C1 (some centres undefined)	13	–
704	Cc1nnc(-c2ccc(CN3C[C@H](N)[C@H](C(=O)N4CCC[C@H]4C#N)C3)cc2)o1	4	IC50 [3]: 165000 nM
–	Cc1cc(CN2C[C@H](N)[C@H](C(=O)N3CCC[C@H]3C#N)C2)cc(C)c1C#N	21	IC50 [3]: 28900 nM
247	N#C[C@@H]1CCCN1C(=O)[C@@H]1CN(Cc2ccc(-n3nccn3)cc2)C[C@@H]1N	49	–
–	CC(c1ccc(-n2cncn2)cc1)N1C[C@H](N)[C@H](C(=O)N2CCC[C@H]2C#N)C1 (some centres undefined)	7	Cmax [4]: 1400 ng/mL; Inhibition (Rattus norvegicus [5]): 86%; half-life [6]: 4.3 h; AUC (Rattus norvegicus [7]): 7703 ng·h/mL; bioavailability [1]: 30.6%; fraction unbound [8]: 0.77
–	N#C[C@@H]1CCCN1C(=O)[C@@H]1CN(C2CCOc3ccccc32)C[C@@H]1N (some centres undefined)	7	–
–	N[C@H]1CN(C(=O)c2ccc(-n3cncn3)cc2)C[C@H]1C(=O)N1CCCC1	14	–
–	N[C@H]1CN(C(=O)c2cc3cc(Cl)ccc3o2)C[C@H]1C(=O)N1CCCC1	14	–
–	Cc1cc(CN2C[C@H](N)[C@H](C(=O)N3CCC[C@H]3C#N)C2)ccc1-n1cncn1	17	–
–	N[C@H]1CN(C(=O)c2cnc3ccccc3n2)C[C@H]1C(=O)N1CCCC1	0.241	IC50 [3]: > 300000 nM
–	N[C@H]1CN(Cc2ccc(F)c(F)c2)C[C@H]1C(=O)N1CCCC1	19	–
–	CCc1cc(CN2C[C@H](N)[C@H](C(=O)N3CCC[C@H]3C#N)C2)cc(CC)c1C#N	3	–
922	N#Cc1cc(CN2C[C@H](N)[C@H](C(=O)N3CCC[C@H]3C#N)C2)ccc1F	10	–
